Patent US20260356819A1, “OXOISOINDOLINYL-SUBSTITUTED […] DERIVATIVE AND USE THEREOF” (GLUETACS THERAPEUTICS (SHANGHAI) CO., LTD., priority 2023, published 2026)

Legend:
MV-4-11 cells = experiment: Inhibition of proliferation of myeloid monocytic leukemia cells MV-4-11 (cell viability assay, 96 h); type: cell-based, human; details: read-out: inhibitory activity (IC50) against tumor cells proliferation, MV-4-11
Experimental: (§1) The tumor cells used herein were cultured in a cell culture medium listed in table 2 at 37 °C in an incubator with 5% CO2. Prior to experimentation, all cell lines used were correctly identified by STR profiling, and tested negative for Mycoplasma contamination using a Mycoplasma detection kit through routine screenings.
(§2) The IC50 values of the compounds of the present disclosure (including the compounds in Table 1, and Examples 1-498) were determined using the CellTiter-Meiluncell Luminescent Cell Viability Assay Kit from Dalian Meilun Biotech Co., Ltd. The detailed procedure is as follows: Tumor cells were seeded in 96-well cell culture plates at the densities specified in Table 3. On the following day, the test compounds of the present disclosure were subjected to serial dilution. […] Subsequently, 0.5 μL of the test compound dilution was transferred into the 96-well plate containing the cells, with each well containing 100 μL of cell culture medium. […] Into the 96-well plate, the diluted test compounds and corresponding detection reagents were added, resulting in final test compound concentrations of 500 nM and 10 nM, respectively. The experimental procedure is described below using the diluted 2 μM test compound as an example.
(§3) 0.5 μL of the aforementioned diluted compound of the present disclosure (including the compounds in Table 1, and Examples 1-498) was added to the seeded cells in 100 μL of medium, yielding a final test compound concentration of 10 nM. After the cells were treated with the compounds of the present disclosure for a specified period, the cell viability assay reagent was added to the culture medium according to the kit's instructions to determine cell viability. […] All controls were treated using the same procedure as the compounds of the present disclosure. The growth inhibition curves for the compounds of the present disclosure were plotted using Prism GraphPad software, and the IC50 values were calculated therefrom.

WEE1 = molecular target: T1, WEE1 (Homo sapiens, UniProt P30291+Q96SW2); experiment: Western blot degradation of WEE1 in hPBMCs (24 h); type: cell-based; details: compounds at 50 nM and 500 nM
T1 construct: The supernatant was aspirated as the extracted total cell protein; endogenous in cells; host or cells: human peripheral blood mononuclear cells (hPBMCs)
Summary of the method: (§4)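 Compounds were tested at 50 nM and 500 nM on hPBMCs (1×10^6 cells/mL) for 24 h, alongside DMSO. Proteins were detected by Western blot after denaturation at 95 °C; remaining protein computed from normalised band grayscale.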

IKZF1 = molecular target: T2, IKZF1 (Homo sapiens, UniProt Q13422+Q96SW2); experiment: Western blot degradation of IKZF1 in hPBMCs (24 h); type: cell-based; details: compounds at 50 nM and 500 nM
T2 construct: The supernatant was aspirated as the extracted total cell protein; endogenous in cells; host or cells: human peripheral blood mononuclear cells (hPBMCs)
Summary of the method: as §4

IKZF2 = molecular target: T3, IKZF2 (Homo sapiens, UniProt Q96SW2+Q9UKS7); experiment: Western blot degradation of IKZF2 in hPBMCs (24 h); type: cell-based; details: compounds at 50 nM and 500 nM
T3 construct: The supernatant was aspirated as the extracted total cell protein; endogenous in cells; host or cells: human peripheral blood mononuclear cells (hPBMCs)
Summary of the method: as §4

IKZF3 = molecular target: T4, IKZF3 (Homo sapiens, UniProt Q96SW2+Q9UKT9); experiment: Western blot degradation of IKZF3 in hPBMCs (24 h); type: cell-based; details: compounds at 50 nM and 500 nM
T4 construct: The supernatant was aspirated as the extracted total cell protein; endogenous in cells; host or cells: human peripheral blood mononuclear cells (hPBMCs)
Summary of the method: as §4

CK1α = molecular target: T5, CK1α (Homo sapiens, UniProt P48729+Q96SW2); experiment: Western blot degradation of CK1α in hPBMCs (24 h); type: cell-based; details: compounds at 50 nM and 500 nM
T5 construct: The supernatant was aspirated as the extracted total cell protein; endogenous in cells; host or cells: human peripheral blood mononuclear cells (hPBMCs)
Summary of the method: as §4

GSPT1 = molecular target: T6, GSPT1 (Homo sapiens, UniProt P15170+Q96SW2); experiment: Western blot degradation of GSPT1 in hPBMCs (24 h); type: cell-based; details: compounds at 50 nM and 500 nM
T6 construct: The supernatant was aspirated as the extracted total cell protein; endogenous in cells; host or cells: human peripheral blood mononuclear cells (hPBMCs)
Summary of the method: as §4

Jurkat cells = experiment: Inhibition of proliferation of T lymphocytic leukemia cells Jurkat (cell viability assay, 96 h); type: cell-based, human; details: read-out: inhibitory activity (IC50) against tumor cells proliferation, Jurkat
Experimental: as §1, §2, §3

T2 sequence (Q13422 whole entry): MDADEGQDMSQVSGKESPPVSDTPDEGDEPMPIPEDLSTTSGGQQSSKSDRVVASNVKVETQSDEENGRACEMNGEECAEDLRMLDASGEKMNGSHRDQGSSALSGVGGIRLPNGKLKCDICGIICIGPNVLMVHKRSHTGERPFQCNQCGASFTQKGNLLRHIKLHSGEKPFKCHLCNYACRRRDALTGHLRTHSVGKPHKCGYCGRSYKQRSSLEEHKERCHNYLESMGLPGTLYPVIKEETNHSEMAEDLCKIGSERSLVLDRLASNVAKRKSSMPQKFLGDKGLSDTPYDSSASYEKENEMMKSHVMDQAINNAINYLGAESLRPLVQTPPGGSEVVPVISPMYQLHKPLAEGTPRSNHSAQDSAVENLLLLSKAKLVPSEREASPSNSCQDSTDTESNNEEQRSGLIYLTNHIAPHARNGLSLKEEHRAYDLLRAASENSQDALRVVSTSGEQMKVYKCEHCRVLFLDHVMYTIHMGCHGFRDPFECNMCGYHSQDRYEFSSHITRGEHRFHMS
T2 sequence (Q96SW2 whole entry): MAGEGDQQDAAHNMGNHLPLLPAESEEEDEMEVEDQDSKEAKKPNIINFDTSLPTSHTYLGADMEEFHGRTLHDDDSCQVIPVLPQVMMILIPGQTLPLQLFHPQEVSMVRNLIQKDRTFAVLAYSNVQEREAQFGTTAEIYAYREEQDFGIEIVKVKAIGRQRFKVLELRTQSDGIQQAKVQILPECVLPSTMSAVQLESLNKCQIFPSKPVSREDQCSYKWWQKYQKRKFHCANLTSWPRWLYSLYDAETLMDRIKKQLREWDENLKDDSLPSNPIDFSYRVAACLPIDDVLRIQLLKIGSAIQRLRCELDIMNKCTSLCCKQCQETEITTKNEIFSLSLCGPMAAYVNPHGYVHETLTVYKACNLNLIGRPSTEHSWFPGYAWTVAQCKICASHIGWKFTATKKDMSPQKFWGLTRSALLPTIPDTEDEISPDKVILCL
T2 sequence (Q16531 whole entry partner): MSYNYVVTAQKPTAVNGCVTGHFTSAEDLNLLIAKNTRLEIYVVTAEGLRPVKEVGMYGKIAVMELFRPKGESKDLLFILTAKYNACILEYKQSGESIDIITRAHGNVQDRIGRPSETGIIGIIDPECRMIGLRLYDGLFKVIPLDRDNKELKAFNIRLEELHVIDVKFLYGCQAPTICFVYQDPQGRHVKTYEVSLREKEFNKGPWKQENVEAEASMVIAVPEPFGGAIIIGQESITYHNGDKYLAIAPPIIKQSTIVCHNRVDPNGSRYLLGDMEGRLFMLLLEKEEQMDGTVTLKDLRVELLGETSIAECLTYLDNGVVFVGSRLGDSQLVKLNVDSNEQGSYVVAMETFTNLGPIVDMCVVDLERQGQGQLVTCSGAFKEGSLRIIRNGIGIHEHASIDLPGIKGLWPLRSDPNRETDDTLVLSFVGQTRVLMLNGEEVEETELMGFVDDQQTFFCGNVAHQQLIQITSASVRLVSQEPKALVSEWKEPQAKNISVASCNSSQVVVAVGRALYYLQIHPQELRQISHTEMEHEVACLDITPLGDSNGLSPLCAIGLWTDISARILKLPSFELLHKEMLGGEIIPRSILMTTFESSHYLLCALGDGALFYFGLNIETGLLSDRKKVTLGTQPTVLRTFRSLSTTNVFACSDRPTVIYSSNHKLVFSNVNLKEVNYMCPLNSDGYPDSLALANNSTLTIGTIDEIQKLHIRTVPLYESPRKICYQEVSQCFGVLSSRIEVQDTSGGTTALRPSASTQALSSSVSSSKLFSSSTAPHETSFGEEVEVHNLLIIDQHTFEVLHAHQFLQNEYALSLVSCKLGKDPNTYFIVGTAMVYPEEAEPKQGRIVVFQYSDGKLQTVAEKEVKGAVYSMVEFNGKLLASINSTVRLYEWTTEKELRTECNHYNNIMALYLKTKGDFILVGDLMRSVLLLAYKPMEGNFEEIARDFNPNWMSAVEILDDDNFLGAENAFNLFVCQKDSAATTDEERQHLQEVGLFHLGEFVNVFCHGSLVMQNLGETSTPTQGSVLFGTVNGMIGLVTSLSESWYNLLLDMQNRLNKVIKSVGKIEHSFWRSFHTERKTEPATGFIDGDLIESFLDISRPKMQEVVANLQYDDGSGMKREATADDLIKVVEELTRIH
T1 sequence (P30291 whole entry): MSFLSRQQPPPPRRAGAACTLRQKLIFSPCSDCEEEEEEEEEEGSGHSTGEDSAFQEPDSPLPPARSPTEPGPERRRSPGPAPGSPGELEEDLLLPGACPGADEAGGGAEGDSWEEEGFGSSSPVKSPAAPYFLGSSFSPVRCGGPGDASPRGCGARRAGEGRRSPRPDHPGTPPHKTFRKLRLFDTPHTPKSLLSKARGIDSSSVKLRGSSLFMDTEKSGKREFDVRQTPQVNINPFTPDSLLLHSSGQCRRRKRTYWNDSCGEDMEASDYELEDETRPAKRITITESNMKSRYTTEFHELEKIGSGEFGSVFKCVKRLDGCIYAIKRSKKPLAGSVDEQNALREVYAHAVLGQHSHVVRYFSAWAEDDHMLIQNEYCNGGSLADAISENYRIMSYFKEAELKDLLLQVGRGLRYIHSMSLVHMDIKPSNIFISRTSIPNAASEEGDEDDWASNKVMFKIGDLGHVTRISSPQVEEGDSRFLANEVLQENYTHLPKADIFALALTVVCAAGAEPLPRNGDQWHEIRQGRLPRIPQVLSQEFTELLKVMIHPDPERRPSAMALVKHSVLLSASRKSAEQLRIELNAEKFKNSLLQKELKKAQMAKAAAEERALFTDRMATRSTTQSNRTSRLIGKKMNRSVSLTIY
T1 sequence (Q96SW2 whole entry): as the sequence (Q96SW2 whole entry) above
T1 sequence (Q16531 whole entry partner): as the sequence (Q16531 whole entry partner) above
T4 sequence (Q9UKT9 whole entry): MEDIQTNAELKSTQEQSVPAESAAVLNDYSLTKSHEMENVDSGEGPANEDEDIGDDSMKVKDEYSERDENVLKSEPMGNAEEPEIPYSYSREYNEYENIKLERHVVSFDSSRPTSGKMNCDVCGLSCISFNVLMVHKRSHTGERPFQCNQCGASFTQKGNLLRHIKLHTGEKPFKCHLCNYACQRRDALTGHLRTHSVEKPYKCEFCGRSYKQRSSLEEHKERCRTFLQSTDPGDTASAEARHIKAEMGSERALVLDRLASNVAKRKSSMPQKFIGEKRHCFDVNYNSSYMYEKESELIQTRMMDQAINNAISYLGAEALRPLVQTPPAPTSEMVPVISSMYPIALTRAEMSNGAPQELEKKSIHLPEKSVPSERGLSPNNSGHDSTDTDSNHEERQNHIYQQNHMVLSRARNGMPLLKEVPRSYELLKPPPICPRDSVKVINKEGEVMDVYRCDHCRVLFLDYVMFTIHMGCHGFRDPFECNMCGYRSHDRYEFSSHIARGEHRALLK
T4 sequence (Q96SW2 whole entry): as the sequence (Q96SW2 whole entry) above
T4 sequence (Q16531 whole entry partner): as the sequence (Q16531 whole entry partner) above
T3 sequence (Q9UKS7 whole entry): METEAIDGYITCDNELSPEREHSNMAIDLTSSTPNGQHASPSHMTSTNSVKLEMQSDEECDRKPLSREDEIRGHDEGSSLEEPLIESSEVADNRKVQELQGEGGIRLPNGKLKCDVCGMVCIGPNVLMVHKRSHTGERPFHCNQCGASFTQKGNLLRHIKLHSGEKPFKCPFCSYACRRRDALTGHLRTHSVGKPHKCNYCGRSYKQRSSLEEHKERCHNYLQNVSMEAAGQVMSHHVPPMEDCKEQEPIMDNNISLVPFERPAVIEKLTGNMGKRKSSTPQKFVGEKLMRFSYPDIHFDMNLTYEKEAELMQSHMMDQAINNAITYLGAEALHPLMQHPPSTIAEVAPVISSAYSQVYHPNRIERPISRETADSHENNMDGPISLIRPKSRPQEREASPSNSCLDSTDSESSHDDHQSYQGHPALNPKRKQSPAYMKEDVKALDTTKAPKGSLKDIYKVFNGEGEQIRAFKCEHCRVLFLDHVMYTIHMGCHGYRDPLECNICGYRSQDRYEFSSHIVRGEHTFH
T3 sequence (Q96SW2 whole entry): as the sequence (Q96SW2 whole entry) above
T3 sequence (Q16531 whole entry partner): as the sequence (Q16531 whole entry partner) above
T6 sequence (P15170 whole entry): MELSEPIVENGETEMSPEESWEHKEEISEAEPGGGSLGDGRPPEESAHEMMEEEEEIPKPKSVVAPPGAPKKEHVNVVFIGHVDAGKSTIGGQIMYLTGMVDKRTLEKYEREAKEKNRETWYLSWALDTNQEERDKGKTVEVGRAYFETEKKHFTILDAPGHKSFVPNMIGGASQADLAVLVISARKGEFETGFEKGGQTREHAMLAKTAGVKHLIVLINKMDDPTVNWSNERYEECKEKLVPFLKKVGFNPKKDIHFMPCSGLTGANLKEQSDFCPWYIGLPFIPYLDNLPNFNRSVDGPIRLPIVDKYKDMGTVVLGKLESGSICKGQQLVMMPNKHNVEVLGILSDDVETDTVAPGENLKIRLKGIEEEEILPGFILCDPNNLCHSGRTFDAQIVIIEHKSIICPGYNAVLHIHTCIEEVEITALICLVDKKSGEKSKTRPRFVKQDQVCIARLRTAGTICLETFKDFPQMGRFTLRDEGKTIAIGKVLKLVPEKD
T6 sequence (Q96SW2 whole entry): as the sequence (Q96SW2 whole entry) above
T6 sequence (Q16531 whole entry partner): as the sequence (Q16531 whole entry partner) above

Compound: O=C1CCN(N2Cc3cc(CN4CCN(c5ccc(F)cc5)CC4)ccc3C2=O)C(=O)N1 [GT-06702, 1-(5-((4-(4-fluorophenyl)piperazin-1-yl)methyl)-1-oxoisoindolin-2-yl)dihydropyrimidine-2,4(1H,3H)-dione]
- IC50 (MV-4-11 cells): 500 to 1000 nM
- WEE1 substrate protein remaining % (WEE1): B (80%< substrate protein remaining % ≤100%)
- IKZF1 substrate protein remaining % (IKZF1): B (80%< substrate protein remaining % ≤100%)
- IKZF2 substrate protein remaining % (IKZF2): B (80%< substrate protein remaining % ≤100%)
- IKZF3 substrate protein remaining % (IKZF3): B (80%< substrate protein remaining % ≤100%)
- CK1α substrate protein remaining % (CK1α): A (0% ≤ substrate protein remaining % ≤80%)
- GSPT1 substrate protein remaining % (GSPT1): A (0% ≤ substrate protein remaining % ≤80%)

Compound: O=C1CCN(N2Cc3cc(CN4CCC(c5cccc(Cl)c5Cl)CC4)ccc3C2=O)C(=O)N1 [GT-06893, 1-(5-((4-(2,3-dichlorophenyl)piperidin-1-yl)methyl)-1-oxoisoindolin-2-yl)dihydropyrimidine-2,4(1H,3H)-dione]
- IC50 (Jurkat cells): 500 to 1000 nM
- IC50 (MV-4-11 cells): 100 to 300 nM
- WEE1 substrate protein remaining % (WEE1): B (80%< substrate protein remaining % ≤100%)
- IKZF1 substrate protein remaining % (IKZF1): A (0% ≤ substrate protein remaining % ≤80%)
- IKZF2 substrate protein remaining % (IKZF2): A (0% ≤ substrate protein remaining % ≤80%)
- IKZF3 substrate protein remaining % (IKZF3): B (80%< substrate protein remaining % ≤100%)
- CK1α substrate protein remaining % (CK1α): B (80%< substrate protein remaining % ≤100%)
- GSPT1 substrate protein remaining % (GSPT1): A (0% ≤ substrate protein remaining % ≤80%)

Compound: O=C1CCN(N2Cc3cc(CN4CCC(c5cccc(C(F)(F)F)c5)CC4)ccc3C2=O)C(=O)N1 [GT-06892, 1-(1-oxo-5-((4-(3-(trifluoromethyl)phenyl)piperidin-1-yl)methyl)isoindolin-2-yl)dihydropyrimidine-2,4(1H,3H)-dione]
- IC50 (MV-4-11 cells): 500 to 1000 nM
- WEE1 substrate protein remaining % (WEE1): B (80%< substrate protein remaining % ≤100%)
- IKZF1 substrate protein remaining % (IKZF1): A (0% ≤ substrate protein remaining % ≤80%)
- IKZF2 substrate protein remaining % (IKZF2): A (0% ≤ substrate protein remaining % ≤80%)
- IKZF3 substrate protein remaining % (IKZF3): B (80%< substrate protein remaining % ≤100%)
- CK1α substrate protein remaining % (CK1α): B (80%< substrate protein remaining % ≤100%)
- GSPT1 substrate protein remaining % (GSPT1): A (0% ≤ substrate protein remaining % ≤80%)

Compound: O=C1CCN(N2Cc3cc(CN4CCC(c5cccc(Br)c5)CC4)ccc3C2=O)C(=O)N1 [GT-06885, 1-(5-((4-(3-bromophenyl)piperidin-1-yl)methyl)-1-oxoisoindolin-2-yl)dihydropyrimidine-2,4(1H,3H)-dione]
- IC50 (MV-4-11 cells): 100 to 300 nM
- WEE1 substrate protein remaining % (WEE1): B (80%< substrate protein remaining % ≤100%)
- IKZF1 substrate protein remaining % (IKZF1): A (0% ≤ substrate protein remaining % ≤80%)
- IKZF2 substrate protein remaining % (IKZF2): A (0% ≤ substrate protein remaining % ≤80%)
- IKZF3 substrate protein remaining % (IKZF3): B (80%< substrate protein remaining % ≤100%)
- CK1α substrate protein remaining % (CK1α): B (80%< substrate protein remaining % ≤100%)
- GSPT1 substrate protein remaining % (GSPT1): A (0% ≤ substrate protein remaining % ≤80%)

Compound: O=C1CCN(N2Cc3cc(CN4CCN(c5ccccc5Br)CC4)ccc3C2=O)C(=O)N1 [GT-06766, 1-(5-((4-(2-bromophenyl)piperazin-1-yl)methyl)-1-oxoisoindolin-2-yl)dihydropyrimidine-2,4(1H,3H)-dione]
- IC50 (MV-4-11 cells): 500 to 1000 nM
- WEE1 substrate protein remaining % (WEE1): A (0% ≤ substrate protein remaining % ≤80%)
- IKZF1 substrate protein remaining % (IKZF1): A (0% ≤ substrate protein remaining % ≤80%)
- IKZF2 substrate protein remaining % (IKZF2): A (0% ≤ substrate protein remaining % ≤80%)
- IKZF3 substrate protein remaining % (IKZF3): A (0% ≤ substrate protein remaining % ≤80%)
- CK1α substrate protein remaining % (CK1α): A (0% ≤ substrate protein remaining % ≤80%)
- GSPT1 substrate protein remaining % (GSPT1): A (0% ≤ substrate protein remaining % ≤80%)

Compound: O=C1CCN(N2Cc3cc(CN4CCN(c5cccc(F)c5F)CC4)ccc3C2=O)C(=O)N1 [GT-06777, 1-(5-((4-(2,3-difluorophenyl)piperazin-1-yl)methyl)-1-oxoisoindolin-2-yl)dihydropyrimidine-2,4(1H,3H)-dione]
- IC50 (MV-4-11 cells): 300 to 500 nM
- WEE1 substrate protein remaining % (WEE1): A (0% ≤ substrate protein remaining % ≤80%)
- IKZF1 substrate protein remaining % (IKZF1): B (80%< substrate protein remaining % ≤100%)
- IKZF2 substrate protein remaining % (IKZF2): A (0% ≤ substrate protein remaining % ≤80%)
- IKZF3 substrate protein remaining % (IKZF3): B (80%< substrate protein remaining % ≤100%)
- CK1α substrate protein remaining % (CK1α): A (0% ≤ substrate protein remaining % ≤80%)
- GSPT1 substrate protein remaining % (GSPT1): A (0% ≤ substrate protein remaining % ≤80%)

Compound: COc1cccc(N2CCN(Cc3ccc4c(c3)CN(N3CCC(=O)NC3=O)C4=O)CC2)c1 [GT-06699, 1-(5-((4-(3-methoxyphenyl)piperazin-1-yl)methyl)-1-oxoisoindolin-2-yl)dihydropyrimidine-2,4(1H,3H)-dione]
- IC50 (MV-4-11 cells): 100 to 300 nM
- WEE1 substrate protein remaining % (WEE1): B (80%< substrate protein remaining % ≤100%)
- IKZF1 substrate protein remaining % (IKZF1): B (80%< substrate protein remaining % ≤100%)
- IKZF2 substrate protein remaining % (IKZF2): B (80%< substrate protein remaining % ≤100%)
- IKZF3 substrate protein remaining % (IKZF3): B (80%< substrate protein remaining % ≤100%)
- CK1α substrate protein remaining % (CK1α): B (80%< substrate protein remaining % ≤100%)
- GSPT1 substrate protein remaining % (GSPT1): A (0% ≤ substrate protein remaining % ≤80%)

Compound: O=C1CCN(N2Cc3cc(CN4CCC(c5cccc(F)c5Cl)CC4)ccc3C2=O)C(=O)N1 [GT-06894, 1-(5-((4-(2-chloro-3-fluorophenyl)piperidin-1-yl)methyl)-1-oxoisoindolin-2-yl)dihydropyrimidine-2,4(1H,3H)-dione]
- IC50 (Jurkat cells): 500 to 1000 nM
- IC50 (MV-4-11 cells): 300 to 500 nM
- WEE1 substrate protein remaining % (WEE1): B (80%< substrate protein remaining % ≤100%)
- IKZF1 substrate protein remaining % (IKZF1): A (0% ≤ substrate protein remaining % ≤80%)
- IKZF2 substrate protein remaining % (IKZF2): B (80%< substrate protein remaining % ≤100%)
- IKZF3 substrate protein remaining % (IKZF3): B (80%< substrate protein remaining % ≤100%)
- CK1α substrate protein remaining % (CK1α): B (80%< substrate protein remaining % ≤100%)
- GSPT1 substrate protein remaining % (GSPT1): A (0% ≤ substrate protein remaining % ≤80%)

Compound: Cc1cccc(N2CCN(Cc3ccc4c(c3)CN(N3CCC(=O)NC3=O)C4=O)CC2)c1 [GT-06770, 1-(1-oxo-5-((4-(m-tolyl)piperazin-1-yl)methyl)isoindolin-2-yl)dihydropyrimidine-2,4(1H,3H)-dione]
- IC50 (Jurkat cells): 500 to 1000 nM
- IC50 (MV-4-11 cells): 500 to 1000 nM
- WEE1 substrate protein remaining % (WEE1): A (0% ≤ substrate protein remaining % ≤80%)
- IKZF1 substrate protein remaining % (IKZF1): A (0% ≤ substrate protein remaining % ≤80%)
- IKZF2 substrate protein remaining % (IKZF2): A (0% ≤ substrate protein remaining % ≤80%)
- IKZF3 substrate protein remaining % (IKZF3): A (0% ≤ substrate protein remaining % ≤80%)
- CK1α substrate protein remaining % (CK1α): A (0% ≤ substrate protein remaining % ≤80%)
- GSPT1 substrate protein remaining % (GSPT1): A (0% ≤ substrate protein remaining % ≤80%)

Compound: O=C1CCN(N2Cc3cc(CN4CCN(c5cc(Cl)cc(Cl)c5)CC4)ccc3C2=O)C(=O)N1 [GT-06776, 1-(5-((4-(3,5-dichlorophenyl)piperazin-1-yl)methyl)-1-oxoisoindolin-2-yl)dihydropyrimidine-2,4(1H,3H)-dione]
- IC50 (Jurkat cells): 500 to 1000 nM
- IC50 (MV-4-11 cells): 100 to 300 nM
- WEE1 substrate protein remaining % (WEE1): A (0% ≤ substrate protein remaining % ≤80%)
- IKZF1 substrate protein remaining % (IKZF1): B (80%< substrate protein remaining % ≤100%)
- IKZF2 substrate protein remaining % (IKZF2): A (0% ≤ substrate protein remaining % ≤80%)
- IKZF3 substrate protein remaining % (IKZF3): B (80%< substrate protein remaining % ≤100%)
- CK1α substrate protein remaining % (CK1α): A (0% ≤ substrate protein remaining % ≤80%)
- GSPT1 substrate protein remaining % (GSPT1): A (0% ≤ substrate protein remaining % ≤80%)
